What all share (assay type): cell-based, Human
For one test, the system named is LL-37. Briefly: AMP gene expression in keratinocytes (real time qPCR), LL-37. Particulars: NHEK cells, 12HSA at 1 μM (=0.00003 wt %), 24 h. The source says: (§1) The following protocol was used for evaluating actives (12-HSA) on keratinocytes for AMP gene expression Normal Human Epidermal Keratinocyte cells (NHEK), EpiLife Keratinocyte Growth Medium (KGM) (with antibiotics Pen-Strep), Dulbecco's Phosphate Buffered Salone (DPBS), Trypsin-EDTA, Trypsin Neutralizer Solution, Ethanol, RNA extraction kit (RNeasy kit), RLT buffer, RT-PCR kit. • 1. Thaw the NHEK cells and expand them in KGM in 2-25 cc and then 75 cc flasks to 80% confluency, changing media every alternate day and incubating at 37° C. in a 5% CO2 incubator. • 2. Discard spent media and rinse the adhered cells in the flask with DPBS. Add Trypsin-EDTA and tap to dislodge the adhered cells. Add Trypsin Neutralizer and gently mix it. • 3. Transfer the contents to a 15-ml tube and spin down the cells. Discard supernatant and resuspend cells in KGM. Count and seed 30,000-50,000 cells per well in 24 well TC plates, incubate to 80-85% confluence (˜2-3 days). Change media every alternate day. Add differentiation media (KGM with 2 mM CaCl2) and incubate for 2-3 days. • 4. Prepare actives in KGM at the required concentration (final concentration of ethanol solvent, if used, should be less than 0.1%). • 5. […] Perform RNA extraction as per the kit, quantify the RNA, do cDNA synthesis and do real time qPCR for cDNA samples. […]

The test system of another test is HBD-3. As to the kind of experiment: AMP gene expression in keratinocytes (real time qPCR), HBD-3. Particulars: NHEK cells, 12HSA at 1 μM (=0.00003 wt %), 24 h.
Text: as §1

Another test deals with S100A7. As to the kind of experiment: AMP gene expression in keratinocytes (real time qPCR), S100A7. Particulars: NHEK cells, 12HSA at 1 μM (=0.00003 wt %), 24 h.
Text: as §1
(In qPCR the cycle at which signal appears reflects the starting amount.)

The test system of another test is Psoriasin (S100A7). Briefly: AMP secretion from keratinocytes (Psoriasin ELISA). Particulars: NHEK cells, 72 h, ELISA of supernatant. An excerpt: Psoriasin (S100A7) AMP from the above list was chosen to study the effect of concentration of 12-HSA on the secretion of the AMP. The procedure used was as follows: Normal Human Epidermal Keratinocyte cells (NHEK), EpiLife Keratinocyte Growth Medium (KGM) (with antibiotics Pen-Strep), Dulbecco's Phosphate Buffered Salone (DPBS), Trypsin-EDTA, Trypsin Neutralizer Solution, Ethanol, Psoriasin ELISA Kit. • 1. Thaw the NHEK cells and expand them in KGM in 2 -25 cc and then 75 cc flasks to 80% confluency, changing media every alternate day and incubating at 37° C. in a 5% CO2 incubator. • 2. Discard spent media and rinse the adhered cells in the flask with DPBS. Add Trypsin-EDTA and tap to dislodge the adhered cells. Add Trypsin Neutralizer and gently mix it. • 3. Transfer the contents to a 15-ml tube and spin down the cells. Discard supernatant and resuspend cells in KGM. Count and seed 30,000-50,000 cells per well in 24 well TC plates, incubate to 80-85% confluence (˜2-3 days). Change media every alternate day. Add differentiation media (KGM with 2 mM CaCl2) and incubate for 2-3 days. • 4. Prepare actives in KGM at the required concentration (final concentration of ethanol solvent, if used, should be less than 0.1%). • 5. Replace the differentiation media with the actives containing media and incubate for 72 h • 6. Collect supernatant and store at −80° C. Thaw them completely before performing ELISA to measure AMP (Psoriasin). • 7. For ELISA, run the required standards and samples (undiluted and diluted) and using standard plot, the amount of AMP in samples calculated.
(An ELISA detects its analyte on a solid surface through an enzyme-linked reagent.)

In a further test the test system is RNase7. As to the kind of experiment: AMP gene expression in keratinocytes (real time qPCR), RNase7. Particulars: NHEK cells, 12HSA at 1 μM (=0.00003 wt %), 24 h.
Text: as §1

Consider `CCCCCCC(O)CCCCCCCCCCC(=O)O` (centres unmarked) [12-HSA, 12-hydroxystearic acid], for which the “Fold change with respect to control, AMP gene LL-37” value with LL-37 worked out at 2.09 fold. For the same molecule, the “Fold change with respect to control, AMP gene HBD-3” value with HBD-3 is recorded as 2.16 fold. For the same molecule, in the test with S100A7, the “Fold change with respect to control, AMP gene S100A7” value is on record as 1.66 fold. For the same molecule, the “Fold change with respect to control (Psoriasin increase)” value in the test on Psoriasin (S100A7) (0.25 μM 12-HSA) stood at 8.12 fold; in the test on Psoriasin (S100A7) (0.50 μM 12-HSA) it was 15.07 fold; in the test on Psoriasin (S100A7) (1.0 μM 12-HSA) it was 9.79 fold; in the test with Psoriasin (S100A7) (2.0 μM 12-HSA), 15.70 fold. In the test with RNase7, the “Fold change with respect to control, AMP gene RNase7” value is given as 2.56 fold.

Values taken from patent US20240000738A1, “HYDROXYSTEARIC ACID FOR INDUCING GENERATION OF ANTIMICROBIAL PEPTIDES” (Conopco, Inc., d/b/a UNILEVER, priority 2020, published 2024).
